Read-outs that look alike come from different tables or passages of the source.
How the values were obtained:
Type in all cases: cell-based, human
[1] = test system: IL-10 production by cells of HC donors; details: for IL-10 SFC: HC donors; for # resp IL-10: number of responding HC donors out of # tested (5 or 6)
[2] = test system: IFNγ production by cells of HC donors; experiment: IFNγ production (SFC) in HC donors in response to broadly conserved peptides; details: for IFNg SFC: HC donors; for # resp IFNg: number of responding HC donors out of # tested (5 or 6)
Method: To test this hypothesis, the HLA binding capacity of the 4241 broadly conserved peptides for common HLA class II alleles was predicted. Next peptides were selected predicted to bind with high affinity to alleles expressed in representative HC donors were tested for IL-10 production. Several frequently recognized IL-10 producing peptides could be identified (FIG. 13A), none of which produced a significant amount of IFNγ (FIG. 13B).

CD4+ memory T cells = test system: CD4+ memory T cells
[3] = test system: PBMC from 30 HC individuals; experiment: ex vivo IFNγ ELISPOT with NTM-specific peptides
[4] = test system: T cells of LTBI and HC donors; experiment: antigen reactivity in LTBI vs HC donors (LTBI-specific or crossreactive); details: response frequency and magnitude in LTBI vs HC donors, FIG. 10
Text: The data herein implies that preexisting immunity and occasional boosting might be provided by exposure to NTMs, in a low MTB-complex exposure population such as the one from the general San Diego area. This might be viewed as desirable, or alternatively contributing an undesired confounding factor in evaluation of vaccination strategies. Regardless, whether or not preexisting, non-TB-complex related reactivity is present in the general population is an important issue has implication for the development of vaccination strategies. To further investigate this issue, epitope reactivity data (Lindestamm-Arlehamn et al, 2012) was mapped back to the specific antigens from which the epitopes were derived. Antigens recognized by 2 or more donors were further categorized as LTBI-specific or crossreactive according to the following criteria; antigens were categorized as LTBI-specific if there was a lack of reactivity in HC individuals, or if the ratio between response frequency and total SFC for LTBI/HC were >4. All other antigens were categorized as crossreactive.

[5] = response frequency among HC donors, NTM-specific peptides (Table 2)
[6] = total spot forming cells, IFNγ ELISPOT, NTM-specific peptides (Table 2)

Substance	IL-10 SFC [1] [SFC]	# resp IL-10 [1]	IFNg SFC [2] [SFC]	# resp IFNg [2]	Resp Freq [3, 5] [%]	Total SFC [3, 6] [SFC]	also measured
AELTRVRQQVIQLLS [Peptide 3580.0001]	733	4	27	0	–	–	–
ESFLFYSGFYLPMYW [Peptide 3580.0002]	570	4	8	0	–	–	–
FTGKPEFVENFFMFI [Peptide 3580.0004]	622	3	27	0	–	–	–
GRFIALLRIFAGPLA [Peptide 3580.0011]	1480	5	52	0	–	–	–
ATFAGIYFWFPKMTG [Peptide 3580.0008]	1328	6	28	0	–	–	–
ASVSKQFTATAILLL [Peptide 3580.0013]	918	4	23	0	–	–	–
ASGLIFGWLAFLLVF [Peptide 3580.0018]	652	4	20	0	–	–	–
YVLFLFTQTVRHRDF [Peptide 3580.0014]	975	4	53	0	–	–	–
ASCKYMKMITPAALL [Peptide 3580.0015]	730	4	32	0	–	–	–
QAAVVRFQEAANKQK [CFP1052-66]	–	–	–	–	–	–	epitope-specific cells in CD4+ naive subset or CD4+ memory subset of control donors (CD4+ memory T cells): No epitope-specific cells were detected; frequency of epitope-specific CD4+ memory T cells, median (CD4+ memory T cells; 5 LTBI donors, median (interquartile range 0.03-0.33)): 0.09
APFISEFLVLLGTFS [Peptide 3580.0005]	585	3	15	0	–	–	–
IGQFGIGFYSSFMVA [Peptide 3580.0012]	468	3	10	0	–	–	–
LPFFSFMTYLIAVPT [Peptide 3580.0007]	505	4	22	0	–	–	–
MVAFMVRYTSGYLCV [Peptide 3580.0017]	1058	4	8	0	–	–	–
FVTYWSFRMMIGLMA [Peptide 3580.0003]	563	4	10	0	–	–	–
DRIAQLLVQRVELVE [Peptide 3580.0009]	1018	5	50	0	–	–	–
LSSTEFELLRFLMRN [Peptide 3580.0020]	1017	5	33	0	–	–	–
FAIMFEALFILTTVD [Peptide 3580.0006]	915	5	32	0	–	–	–
LAMFAIIFFWTPPHT [Peptide 3580.0016]	1142	5	27	0	–	–	–
RFTLLRPLLFTIAYE [Peptide 311]	–	–	–	–	3	477	Resp Freq [3]: 3%; Total SFC [3]: 477 SFC
HQGLAFLLADMAAAV [Peptide 8]	–	–	–	–	3	58	Resp Freq [3]: 3%; Total SFC [3]: 58 SFC
106 (GLSSAWLSLIFAEMI) [Peptide 106]	–	–	–	–	3	55	–
645 (PASILILFAPGAPRE) [Peptide 645]	–	–	–	–	3	23	–

Substance	IL-10 SFC [1] [SFC]	# resp IL-10 [1]	IFNg SFC [2] [SFC]	# resp IFNg [2]	Resp Freq [3, 5] [%]	Total SFC [3, 6] [SFC]	also measured
397 (ALMNQFISLLKASSL) [Peptide 397]	–	–	–	–	3	40	–
1549 (RILQVFTEAYADVER) [Peptide 1549]	–	–	–	–	3	48	–
RELIRAFWPGALSLV [Peptide 3580.0019]	422	3	27	0	–	–	–
47 (VEFFRAVPVLIMMIF) [Peptide 47]	–	–	–	–	3	40	–
1334 (FFDAGLVVFLPIIMT) [Peptide 1334]	–	–	–	–	3	47	–
LGVAALLFGFPIFFD [Peptide 391]	–	–	–	–	3	77	Resp Freq [3]: 3%; Total SFC [3]: 77 SFC
883 (EWFARILFSLFSTPS) [Peptide 883]	–	–	–	–	3	28	–
537 (VEPVDISNAVLFLAS) [Peptide 537]	–	–	–	–	3	43	–
651 (FSWFAAGMVLAELTV) [Peptide 651]	–	–	–	–	3	22	–
DPLIFFRPRVERLFG [Peptide 720]	–	–	–	–	10	125	Resp Freq [3]: 10%; Total SFC [3]: 125 SFC
KDVFFYEPIILPEKS [Peptide 752]	–	–	–	–	3	78	Resp Freq [3]: 3%; Total SFC [3]: 78 SFC
417 (GVVAAIIAYNYPNQL) [Peptide 417]	–	–	–	–	3	28	–
718 (LGPTAGLTVASALLV) [Peptide 718]	–	–	–	–	3	28	–
AKSVLIFLGIPLLAG [Peptide 3580.0010]	892	4	35	0	–	–	–
1132 (FLFTMLQKTLKGNIF) [Peptide 1132]	–	–	–	–	3	35	–
714 (AFTHFALLANVAEDI) [Peptide 714]	–	–	–	–	3	35	–
1196 (MVWRAAAAIELGICD) [Peptide 1196]	–	–	–	–	3	35	–
1526 (VATVRAASSLVRAPL) [Peptide 1526]	–	–	–	–	3	27	–
1075 (SPEQAYLLLGAAPIE) [Peptide 1075]	–	–	–	–	3	22	–
621 (AKVLGVFLVTEIVML) [Peptide 621]	–	–	–	–	3	27	–
628 (LGVFPLIVMFLITSI) [Peptide 628]	–	–	–	–	3	53	–
Rv3804c: MTB antigen currently included in TB vaccines in clinical development	–	–	–	–	–	–	antigen reactivity category (LTBI-specific or crossreactive) [4]: widely cross-reactive

Source: patent US10406218B2 (priority 2014, dated 2019)
